According to ChEMBL document CHEMBL1201862, “PubChem BioAssay data set” (2004):
Active and inactive are the calls of the source.

Experiments:
[1] = biological target: T1, Methionyl-tRNA synthetase, putative (Trypanosoma brucei brucei, UniProt Q38C91); format: functional, Trypanosoma brucei brucei strain 927/4 GUTat10.1
T1 sequence (Q38C91 whole entry): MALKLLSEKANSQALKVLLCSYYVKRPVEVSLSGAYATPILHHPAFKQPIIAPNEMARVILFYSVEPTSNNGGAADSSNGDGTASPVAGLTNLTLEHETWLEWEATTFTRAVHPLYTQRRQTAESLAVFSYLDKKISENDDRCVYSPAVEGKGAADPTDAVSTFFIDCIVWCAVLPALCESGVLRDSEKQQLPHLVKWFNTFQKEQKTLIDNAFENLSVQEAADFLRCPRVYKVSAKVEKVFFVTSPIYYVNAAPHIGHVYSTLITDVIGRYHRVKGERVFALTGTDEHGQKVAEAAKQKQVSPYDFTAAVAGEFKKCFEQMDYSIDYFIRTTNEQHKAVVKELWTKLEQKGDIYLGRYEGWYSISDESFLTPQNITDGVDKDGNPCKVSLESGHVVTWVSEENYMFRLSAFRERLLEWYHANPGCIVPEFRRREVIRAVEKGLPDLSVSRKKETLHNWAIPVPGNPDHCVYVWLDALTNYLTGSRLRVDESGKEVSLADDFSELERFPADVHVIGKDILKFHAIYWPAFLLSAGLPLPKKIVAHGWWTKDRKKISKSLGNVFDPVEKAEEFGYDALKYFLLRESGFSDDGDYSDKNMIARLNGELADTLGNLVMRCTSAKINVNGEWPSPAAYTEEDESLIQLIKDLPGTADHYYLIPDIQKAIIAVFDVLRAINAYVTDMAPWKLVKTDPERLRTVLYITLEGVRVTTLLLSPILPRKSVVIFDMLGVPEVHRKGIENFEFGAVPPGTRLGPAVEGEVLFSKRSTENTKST

[2] = Counterscreen for inhibitors of Trypanosoma brucei methionyl tRNA synthetase (MetRS): Luminescence-based cell-based high throughput dose response assay to identify compounds that are cytotoxic to Jurkat human T lymphocyte cells.; format: functional
[3] = biological target: T1, Methionyl-tRNA synthetase, putative; format: functional, Trypanosoma brucei brucei strain 927/4 GUTat10.1; remark: listed apart in the source
[4] = biological target: Arf-GAP with SH3 domain, ANK repeat and PH domain-containing protein 1 (Homo sapiens, UniProt Q9ULH1); format: functional;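 further: biochemical fluorescence polarization dose–response screen measuring inhibition of ASAP1; ASAP1 GAP domain stimulating GTP hydrolysis by truncated human ARF1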
Arf-GAP with SH3 domain, ANK repeat and PH domain-containing protein 1, sequence (Q9ULH1 whole entry, the tested form may be a part): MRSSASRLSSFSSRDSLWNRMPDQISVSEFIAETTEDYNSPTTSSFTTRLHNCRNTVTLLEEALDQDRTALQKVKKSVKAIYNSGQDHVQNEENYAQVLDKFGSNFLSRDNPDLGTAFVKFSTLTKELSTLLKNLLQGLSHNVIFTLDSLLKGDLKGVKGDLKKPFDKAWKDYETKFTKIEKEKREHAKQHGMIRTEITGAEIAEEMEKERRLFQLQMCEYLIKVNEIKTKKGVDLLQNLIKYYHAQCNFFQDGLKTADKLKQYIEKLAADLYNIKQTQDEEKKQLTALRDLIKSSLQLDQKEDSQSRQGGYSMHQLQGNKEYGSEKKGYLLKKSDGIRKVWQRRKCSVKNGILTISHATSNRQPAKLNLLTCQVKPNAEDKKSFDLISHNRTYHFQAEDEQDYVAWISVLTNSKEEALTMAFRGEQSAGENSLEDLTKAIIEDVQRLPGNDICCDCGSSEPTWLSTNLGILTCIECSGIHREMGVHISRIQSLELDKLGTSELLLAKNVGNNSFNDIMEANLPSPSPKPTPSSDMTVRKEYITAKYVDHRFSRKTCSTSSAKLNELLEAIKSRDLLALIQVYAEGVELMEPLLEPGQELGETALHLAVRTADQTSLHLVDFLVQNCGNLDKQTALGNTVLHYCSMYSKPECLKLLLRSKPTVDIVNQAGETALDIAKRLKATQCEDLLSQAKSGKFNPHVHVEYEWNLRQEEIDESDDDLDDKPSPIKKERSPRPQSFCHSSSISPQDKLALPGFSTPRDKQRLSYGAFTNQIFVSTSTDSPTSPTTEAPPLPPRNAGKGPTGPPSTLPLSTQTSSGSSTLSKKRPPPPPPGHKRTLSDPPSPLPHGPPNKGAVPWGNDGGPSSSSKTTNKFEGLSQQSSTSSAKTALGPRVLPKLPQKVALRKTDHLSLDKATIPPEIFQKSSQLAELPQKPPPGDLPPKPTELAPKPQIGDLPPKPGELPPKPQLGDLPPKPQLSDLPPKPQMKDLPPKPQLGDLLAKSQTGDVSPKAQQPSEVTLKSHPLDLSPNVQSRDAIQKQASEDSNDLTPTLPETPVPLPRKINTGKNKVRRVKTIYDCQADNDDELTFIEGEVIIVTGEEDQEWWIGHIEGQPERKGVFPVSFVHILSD

Cytochrome P450 1A2 = biological target: T2, Cytochrome P450 1A2 (Homo sapiens, UniProt P05177);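 further: PubChem cytochrome P450 panel assay, CYP1A2 panel member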
T2 sequence (P05177 whole entry): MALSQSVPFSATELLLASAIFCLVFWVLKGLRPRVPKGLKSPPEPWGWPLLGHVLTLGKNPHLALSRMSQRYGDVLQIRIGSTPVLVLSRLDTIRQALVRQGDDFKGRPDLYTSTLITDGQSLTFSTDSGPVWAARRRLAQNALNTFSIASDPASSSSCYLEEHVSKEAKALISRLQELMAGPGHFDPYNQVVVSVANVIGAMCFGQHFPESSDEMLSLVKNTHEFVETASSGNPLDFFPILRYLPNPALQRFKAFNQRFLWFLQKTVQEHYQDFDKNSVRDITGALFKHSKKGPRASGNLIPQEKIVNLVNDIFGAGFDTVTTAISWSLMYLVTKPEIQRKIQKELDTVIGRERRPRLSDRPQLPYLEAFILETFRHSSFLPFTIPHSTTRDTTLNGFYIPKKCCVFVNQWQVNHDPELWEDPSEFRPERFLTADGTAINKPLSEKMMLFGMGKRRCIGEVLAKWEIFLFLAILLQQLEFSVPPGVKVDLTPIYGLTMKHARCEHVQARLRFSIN

Cytochrome P450 3A4 = Cytochrome P450 3A4 (Homo sapiens, UniProt P08684);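 further: CYP3A4 tested as one member of a cytochrome P450 panel screen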
Cytochrome P450 3A4, sequence (P08684 whole entry): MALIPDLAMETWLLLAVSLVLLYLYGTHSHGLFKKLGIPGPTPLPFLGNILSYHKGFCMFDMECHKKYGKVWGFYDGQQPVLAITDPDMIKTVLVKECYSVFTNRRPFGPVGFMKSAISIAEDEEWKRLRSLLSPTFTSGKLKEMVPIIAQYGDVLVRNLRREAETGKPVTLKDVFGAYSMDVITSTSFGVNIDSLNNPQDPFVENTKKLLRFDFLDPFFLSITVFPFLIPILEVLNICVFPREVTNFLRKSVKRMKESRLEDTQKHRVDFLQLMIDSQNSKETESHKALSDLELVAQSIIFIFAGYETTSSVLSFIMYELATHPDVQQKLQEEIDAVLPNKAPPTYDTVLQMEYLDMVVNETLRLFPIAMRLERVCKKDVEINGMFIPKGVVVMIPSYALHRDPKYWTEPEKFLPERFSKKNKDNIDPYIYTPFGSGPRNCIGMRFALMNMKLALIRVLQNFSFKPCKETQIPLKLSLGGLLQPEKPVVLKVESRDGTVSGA

[5] = biological target: T3, Heat shock factor protein 1 (Mus musculus, UniProt P38532); assay: inhibition of MG132-induced HSE-luciferase signal, confirmation, cell-based, NIH3T3, luminescence, dose retest (AID 2382); format: functional;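 further: NIH3T3 fibroblasts with HSF1-driven luciferase reporter stressed by proteasome inhibitor MG132; luminescence from HSF1-driven luciferase expression after 8 hours of MG132 stress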
T3 sequence (P38532 whole entry): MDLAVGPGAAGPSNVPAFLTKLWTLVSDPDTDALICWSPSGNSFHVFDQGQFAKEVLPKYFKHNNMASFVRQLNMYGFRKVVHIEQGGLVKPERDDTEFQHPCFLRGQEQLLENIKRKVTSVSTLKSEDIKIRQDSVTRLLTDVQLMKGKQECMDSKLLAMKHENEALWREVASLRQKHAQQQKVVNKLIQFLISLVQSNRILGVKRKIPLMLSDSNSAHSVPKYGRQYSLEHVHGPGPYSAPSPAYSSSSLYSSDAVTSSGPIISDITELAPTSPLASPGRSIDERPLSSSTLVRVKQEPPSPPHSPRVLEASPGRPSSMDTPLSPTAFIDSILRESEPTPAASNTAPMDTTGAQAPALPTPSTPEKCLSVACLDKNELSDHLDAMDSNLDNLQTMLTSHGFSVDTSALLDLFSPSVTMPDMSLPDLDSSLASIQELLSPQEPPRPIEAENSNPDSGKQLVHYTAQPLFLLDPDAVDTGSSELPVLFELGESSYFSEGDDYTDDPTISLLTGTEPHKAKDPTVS

[6] = biological target: DNA dC->dU-editing enzyme APOBEC-3A (Homo sapiens, UniProt P31941); assay: Dose Response confirmation of small molecule APOBEC3A DNA Deaminase Inhibitors via a fluorescence-based single-stranded DNA deaminase assay. [Related pubchem assays (depositor defined):AID493011, AID493024]; format: functional
DNA dC->dU-editing enzyme APOBEC-3A, sequence (P31941 whole entry): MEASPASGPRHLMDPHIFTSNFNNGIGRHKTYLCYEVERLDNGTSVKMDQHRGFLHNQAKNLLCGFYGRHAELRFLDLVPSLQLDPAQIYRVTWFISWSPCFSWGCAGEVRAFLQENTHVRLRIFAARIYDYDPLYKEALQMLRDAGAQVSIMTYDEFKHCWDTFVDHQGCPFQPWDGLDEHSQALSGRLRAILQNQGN

[7] = biological target: DNA dC->dU-editing enzyme APOBEC-3G (Homo sapiens, UniProt Q9HC16); format: functional;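 further: Dose-response counterscreen measuring inhibition of APOBEC3G DNA deaminase activity, run while confirming APOBEC3A inhibitors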
DNA dC->dU-editing enzyme APOBEC-3G, sequence (Q9HC16 whole entry): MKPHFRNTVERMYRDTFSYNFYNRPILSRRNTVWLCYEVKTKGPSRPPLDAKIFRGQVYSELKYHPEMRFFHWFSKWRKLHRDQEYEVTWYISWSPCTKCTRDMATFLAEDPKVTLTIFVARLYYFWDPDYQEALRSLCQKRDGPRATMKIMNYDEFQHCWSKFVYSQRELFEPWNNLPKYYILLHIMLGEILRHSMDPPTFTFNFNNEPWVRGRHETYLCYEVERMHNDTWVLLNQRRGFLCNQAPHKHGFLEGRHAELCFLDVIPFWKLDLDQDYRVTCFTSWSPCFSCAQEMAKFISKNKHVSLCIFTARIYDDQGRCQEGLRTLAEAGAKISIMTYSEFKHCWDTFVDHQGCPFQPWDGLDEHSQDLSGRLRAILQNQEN

[8] = biological target: T4, Long-chain-fatty-acid--AMP ligase FadD28 (Mycobacterium tuberculosis, UniProt P9WQ59); assay: Fluorescence polarization aasay to screen for inhibitors that compete for the binding of FadD28 to a bisubstrate Measured in Biochemical System Using Plate Reader - 2147-01_Inhibitor_Dose_CherryPick_Activity.; format: functional, Mycobacterium tuberculosis H37Rv
T4 sequence (P9WQ59 whole entry): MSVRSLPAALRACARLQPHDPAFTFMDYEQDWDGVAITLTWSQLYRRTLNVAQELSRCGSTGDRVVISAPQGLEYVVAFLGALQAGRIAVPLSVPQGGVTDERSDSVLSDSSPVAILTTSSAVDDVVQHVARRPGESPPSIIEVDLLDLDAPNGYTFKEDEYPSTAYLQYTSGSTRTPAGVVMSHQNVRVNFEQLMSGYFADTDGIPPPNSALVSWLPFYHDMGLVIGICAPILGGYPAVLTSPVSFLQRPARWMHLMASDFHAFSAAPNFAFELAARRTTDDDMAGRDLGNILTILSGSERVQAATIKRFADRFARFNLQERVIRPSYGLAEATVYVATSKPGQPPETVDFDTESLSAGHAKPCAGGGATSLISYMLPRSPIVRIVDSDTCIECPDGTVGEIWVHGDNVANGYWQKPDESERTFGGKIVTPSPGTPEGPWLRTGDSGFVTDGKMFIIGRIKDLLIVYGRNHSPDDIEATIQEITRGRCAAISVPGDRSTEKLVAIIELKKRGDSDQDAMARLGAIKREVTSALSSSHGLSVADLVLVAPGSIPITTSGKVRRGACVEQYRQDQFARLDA

cells [9] = format: functional, cell-based
cells [10] = format: functional, cell-based; remark: listed apart in the source

Row | Compound | IC50 [1] | IC50 [2] | IC50 [3] | other results
1 | Cn1nc(C(F)(F)F)c(-c2cccc(C(F)(F)F)c2)c1NC(=O)Nc1ccc(F)cc1 | 119 µM (inactive) | 28.9 µM (inactive) | 10.4 µM (inactive) | –
2 | CCOc1ccc(C(=O)Nc2cccc(-c3cc4ccccc4oc3=O)c2)cc1[N+](=O)[O-] | – | – | – | IC50 [4]: 37.9 µM (inactive); AC50 (Cytochrome P450 1A2): 5.62 µM (inconclusive); AC50 (Cytochrome P450 3A4): 10 µM (inconclusive)
3 | O=C(COc1cccc(-n2cnnn2)c1)Nc1ccccc1 | 76 µM (inactive) | 83.3 µM (inactive) | 38.2 µM (inactive) | –
4 | O=C(Cc1ccc(Cl)c(Cl)c1)Nc1cccc(S(=O)(=O)N2CCOCC2)c1 | 7.78 µM (active) | 34.8 µM (inactive) | 4.48 µM (active) | –
5 | CCOc1ccc2c(c1)[N+](C)(C)C(C)(C)C=C2C | – | – | – | EC50 [5]: > 195 µM (not active); IC50 [6]: 2.96 µM (active); IC50 [7]: 3.2 µM (active)
6 | CCOC(=O)C1CCCN(C(=O)c2cc(Nc3ccc(OC)cc3)nc3ccccc23)C1 (centres undefined) | – | – | – | AC50 [8]: 30.5 µM (active)
7 | Oc1c(C(c2ccc(F)cc2)N2CCc3ccccc3C2)sc2ncnn12 (centres undefined) | – | – | – | IC50 (cells [9]): > 29.9 µM (inactive); EC50 (cells [10]): > 29.9 µM (inactive)
8 | OC(c1cc(Cl)cc(Cl)c1)c1nc(-c2cccc(F)c2)c[nH]1 (centres undefined) | 10.6 µM (inactive) | 83.3 µM (inactive) | 7.94 µM (active) | –
9 | COc1ccc(/C=N/CC2OCCc3ccccc32)cc1OC (centres undefined) | – | – | – | IC50 (cells [9]): > 29.9 µM (inactive); EC50 (cells [10]): > 29.9 µM (inactive)
10 | Clc1ccc(Cn2cc(/C=N/n3cnnc3)c3ccccc32)c(Cl)c1 | – | – | – | IC50 [4]: 12.9 µM (inactive)
